Measured values published in patent US9051342B2 (priority 2004, dated 2015).

melting point	SMILES
270 to 272 °C	O=C(O)c1cccc(-c2ncn(-c3ccc(F)c(Cl)c3)n2)c1 [Compound 25, 3-[1-(3-Chloro-4-fluoro-phenyl)-1H-[1,2,4]triazol-3-yl]-benzoic acid]
191 to 192 °C	O=C(O)c1cccc(-n2cc3c(n2)-c2ccccc2CC3)c1 [Compound 137, 3-(4,5-Dihydro-benzo[g]indazol-2-yl)-benzoic acid]
194 to 196 °C	O=C(O)c1cccc(-c2cnn(-c3ccc(Cl)cc3)c2)n1 [Compound 54, 6-[1-(4-Chloro-phenyl)-1H-pyrazol-4-yl]-pyridine-2-carboxylic acid]
253 to 255 °C	O=C(O)c1cccc(-c2ncn(-c3cccc(Br)c3)n2)c1 [Compound 35, 3-[1-(3-Bromo-phenyl)-1H-[1,2,4]triazol-3-yl]-benzoic acid]
198 to 200 °C	O=C(O)c1cccc(-c2ccn(-c3ccccc3Cl)c2)c1 [Compound 198, 3-[1-(2-Chloro-phenyl)-1H-pyrrol-3-yl]-benzoic acid]
297 to 299 °C	O=C(O)c1cccc(-n2cc(-c3ccncn3)cn2)c1 [Compound 117, 3-(4-Pyrimidin-4-yl-pyrazol-1-yl)-benzoic acid]
209 to 211 °C	Cc1ccc(-n2cc(-c3cccc(C(=O)O)c3)cn2)cc1Cl [Compound 230, 3-[1-(3-Chloro-4-methyl-phenyl)-1H-pyrazol-4-yl]-benzoic acid]
200 to 202 °C	O=C(O)c1cccc(-c2cnn(-c3ccc(F)cc3F)c2)c1 [Compound 179, 3-[1-(2,4-Difluoro-phenyl)-1H-pyrazol-4-yl]-benzoic acid]
205 to 208 °C	Cc1ccc(-n2ccc(-c3cccc(C(=O)O)c3)c2)cc1F [Compound 241, 3-[1-(3-Fluoro-4-methyl-phenyl)-1H-pyrrol-3-yl]-benzoic acid]
161 to 163 °C	Cc1ccccc1-n1ccc(-c2cccc(C(=O)O)c2)c1 [Compound 240, 3-(1-o-Tolyl-1H-pyrrol-3-yl)-benzoic acid]
276 to 277 °C	O=C(O)c1ccc(-n2cc(-c3ccc([N+](=O)[O-])cc3)cn2)cc1 [Compound 102, 4-[4-(4-Nitro-phenyl)-pyrazol-1-yl]-benzoic acid]
166 to 168 °C	O=C(O)c1cccc(-n2cc(-c3cccc(OC(F)(F)F)c3)cn2)c1 [Compound 209, 3-[4-(3-Trifluoromethoxy-phenyl)-pyrazol-1-yl]-benzoic acid]
251 to 252 °C	Cc1cccc(-c2cnn(-c3ccc(C(=O)O)cc3)c2)c1 [Compound 91, 4-(4-m-Tolyl-pyrazol-1-yl)-benzoic acid]
266 to 268 °C	O=C(O)c1ccc(-c2cnn(-c3ccc(F)cc3)c2)cc1 [Compound 182, 4-[1-(4-Fluoro-phenyl)-1H-pyrazol-4-yl]-benzoic acid]
180 to 183 °C	CN(C)c1cccc(-n2ccc(-c3cccc(C(=O)O)c3)n2)c1 [Compound 164, 3-[1-(3-Dimethylamino-phenyl)-1H-pyrazol-3-yl]-benzoic acid]
266 to 268 °C	O=C(O)c1ccc(-c2cnn(-c3ccc4c(c3)OCO4)c2)cc1 [Compound 227, 4-(1-Benzo[1,3]dioxol-5-yl-1H-pyrazol-4-yl)-benzoic acid]
225 to 226 °C	O=C(O)c1cccc(-n2cc(-c3ccccc3)cn2)c1 [Compound 98, 3-(4-Phenyl-pyrazol-1-yl)-benzoic acid]
261 to 265 °C	O=C(O)c1ccc(-n2cc(-c3cccc(F)c3)cn2)cc1 [Compound 212, 4-[4-(3-Fluoro-phenyl)-pyrazol-1-yl]-benzoic acid]
238 to 240 °C	O=C(O)c1ccc(-c2cnn(-c3ccc4c(c3)OCCO4)c2)cc1 [Compound 226, 4-[1-(2,3-Dihydro-benzo[1,4]dioxin-6-yl)-1H-pyrazol-4-yl]-benzoic acid]
> 350 °C	O=C(O)c1ccc(-n2cc(-c3ccncc3)cn2)cc1 [Compound 116, 4-(4-Pyridin-4-yl-pyrazol-1-yl)-benzoic acid]
153 to 154 °C	COc1cccc(-n2ccc(-c3cccc(C(=O)O)c3)n2)c1 [Compound 77, 3-[1-(3-Methoxy-phenyl)-1H-pyrazol-3-yl]-benzoic acid]
233 to 234 °C	O=C(O)c1cccc(-n2cc3c(n2)CCc2ccccc2-3)c1 [Compound 141, 3-(4,5-Dihydro-benzo[e]indazol-2-yl)-benzoic acid]
178 to 180 °C	O=C(O)c1cccc(-n2cc(-c3cccc(Cl)c3)cn2)c1 [Compound 210, 3-[4-(3-Chloro-phenyl)-pyrazol-1-yl]-benzoic acid]
250 to 252 °C	O=C(O)c1cccc(-n2cc(-c3ccc4ccccc4n3)cn2)c1 [Compound 123, 3-(4-Quinolin-2-yl-pyrazol-1-yl)-benzoic add]
201 to 203 °C	O=C(O)c1cccc(-c2cnn(-c3ccc4c(c3)OCCO4)c2)c1 [Compound 225, 3-[1-(2,3-Dihydro-benzo[1,4]dioxin-6-yl)-1H-pyrazol-4-yl]-benzoic acid]

Continued, molecule first:

SMILES	melting point
O=C(O)c1ccc(-c2ccn(-c3cccc(C(F)(F)F)c3)c2)cc1 [Compound 128, 4-[1-(3-Trifluoromethyl-phenyl)-1H-pyrrol-3-yl]-benzoic acid]	209 to 211 °C
O=C(O)c1cccc(-c2ccn(-c3ccc(OCc4ccccc4)cc3)n2)c1 [Compound 176, 3-[1-(4-Benzyloxy-phenyl)-1H-pyrazol-3-yl]-benzoic acid]	210 to 212 °C
O=C(O)c1cccc(-n2ncc3c2CCc2ccccc2-3)c1 [Compound 135, 3-(4,5-Dihydro-benzo[e]indazol-3-yl)-benzoic acid]	273 to 275 °C
O=C(O)c1cccc(-n2ccc(-c3ccc(C(F)(F)F)cc3)n2)c1 [Compound 94]	225 to 227 °C
CC(C)c1ccc(-c2nn(Cc3ccc(C(=O)O)cc3)c(=O)o2)cc1 [Compound 278, 4-{[5-(4-isopropylphenyl)-2-oxo-1,3,4-oxadiazol-3(2H)-yl]methyl}benzoic acid]	217 to 219 °C
CC(C)c1ccc(-c2nn(-c3ccc(C(=O)O)cc3)c(=O)s2)cc1 [Compound 281, 4-[5-(4-isopropylphenyl)-2-oxo-1,3,4-thiadiazol-3(2H)-yl]benzoic acid]	205 to 208 °C
O=C(O)c1cccc(-c2ncn(-c3cc(C(F)(F)F)cc(C(F)(F)F)c3)n2)c1 [Compound 20, 3-[1-(3,5-Bis-trifluoromethyl-phenyl)-1H-[1,2,4]triazol-3-yl]-benzoic acid]	271 to 273 °C
O=C(O)c1ccc(-n2cc3c(n2)-c2ccccc2CC3)cc1 [Compound 161, 4-(4,5-Dihydro-benzo[g]indazol-2-yl)-benzoic acid]	288 to 290 °C
O=C(O)c1cccc(-c2ccn(-c3ccc([N+](=O)[O-])cc3)n2)c1 [Compound 168, 3-[1-(4-Nitro-phenyl)-1H-pyrazol-3-yl]-benzoic acid]	280 to 281 °C
O=C(O)c1cccc(-c2ncn(-c3ccccn3)n2)c1 [Compound 36, 3-(1-Pyridin-2-yl-1H-[1,2,4]triazol-3-yl)-benzoic acid]	241 to 244 °C
O=C(O)c1ccc(-c2ccn(-c3cccnc3)n2)cc1 [Compound 261, 4-(1-Pyridin-3-yl-1H-pyrazol-3-yl)-benzoic acid]	280 to 282 °C
COc1ccc2c(c1)-c1nn(-c3cccc(C(=O)O)c3)cc1C2 [Compound 140, 3-(7-Methoxy-4H-indeno[1,2-c]pyrazol-2-yl)-benzoic acid]	225 to 227 °C
O=C(O)c1ccc(-c2ccn(-c3cccc(F)c3)c2)cc1 [Compound 152, 4-[1-(3-Fluoro-phenyl)-1H-pyrrol-3-yl]-benzoic acid]	211 to 213 °C
COC(=O)c1cccc(-n2ccc(-c3cccc(C#N)c3)n2)c1 [Compound 64, 3-[3-(3-Cyano-phenyl)-pyrazol-1-yl]-benzoic acid methyl ester]	143 to 145 °C
CC(C)c1ccc(-c2cn(-c3cccc(C(=O)O)c3)c(N)n2)cc1 [Compound 1, 3-[2-amino-4-(4-isopropylphenyl)-1H-imidazol-1-yl]benzoic acid]	279 to 282 °C (dec.)
CC(C)c1ccc(-c2nn(-c3ccc(C(=O)O)cc3)c(=S)o2)cc1 [Compound 285, 4-[5-(4-Isopropyl-phenyl)-2-thioxo-[1,3,4]oxadiazol-3-yl]-benzoic acid]	239 to 240 °C
O=C(O)c1ccc(-c2ccn(-c3cc(F)cc(F)c3)c2)cc1 [Compound 153, 4-[1-(3,5-Difluoro-phenyl)-1H-pyrrol-3-yl]-benzoic acid]	243 to 245 °C
O=C(O)c1cccc(-c2ccn(-c3ccccc3F)n2)c1 [Compound 86, 3-[1-(2-Fluoro-phenyl)-1H-pyrazol-3-yl]-benzoic acid]	157 to 158 °C
CCc1ccc(-n2ccc(-c3ccc(C(=O)O)cc3)c2)cc1 [Compound 129, 4-[1-(4-Ethyl-phenyl)-1H-pyrrol-3-yl]-benzoic acid]	278 to 280 °C
O=C(O)c1cccc(-c2ccn(-c3cccc(OCc4ccccc4)c3)n2)c1 [Compound 175, 3-[1-(3-Benzyloxy-phenyl)-1H-pyrazol-3-yl]-benzoic acid]	152 to 153 °C
O=C(O)c1ccc(-n2cnc(-c3cccc(C(=O)O)c3)n2)cc1 [Compound 31, 4-[3-(3-Carboxy-phenyl)-[1,2,4]triazol-1-yl]-benzoic acid]	> 300 °C
COc1ccc(-n2cnc(-c3cccc(C(=O)O)c3)n2)cc1 [Compound 12, 3-[1-(4-Methoxy-phenyl)-1H-[1,2,4]triazol-3-yl]-benzoic acid]	230 to 232 °C
O=C(O)c1cccc(-c2ncn(-c3ccc(Br)cc3)n2)c1 [Compound 22, 3-[1-(4-Bromo-phenyl)-1H-[1,2,4]triazol-3-yl]-benzoic acid]	> 310 °C
O=C(O)c1ccc(-n2ccc(-c3ccccc3)n2)cc1 [Compound 222, 4-(3-Phenyl-pyrazol-1-yl)-benzoic acid]	244 to 245 °C
COc1cccc(-n2cnc(-c3ccc(C(=O)O)cc3)n2)c1	203 to 205 °C
